In US10196363B2, “Dihydropyrimidin-2-one compounds and medical use thereof” (JAPAN TOBACCO INC., priority 2014, dated 2019):

Columns and labels:
human RORγ = target: T1, human RORγ (Homo sapiens, UniProt P51449); experiment: In vitro assay of inhibitory effect against RORγ transcriptional activity (GAL4-hRORγ LBD luciferase reporter gene assay in CHO cells); assay type: cell-based; settings: for EC50: GAL4-hRORγ LBD / pG5-Luc in CHO cells, 2 days incubation; for hRORγ luciferase activity, %-of-control: value in parentheses beside the > EC50 bound, vehicle-control 0.2% DMSO alone = 100%
T1 construct: human RORγ, from Ser253 to Lys518; expressed in transfected cells; host or cells: CHO cells (Chinese hamster ovary), transient co-transfection with pG5-Luc
T1 sequence (P51449 253-518): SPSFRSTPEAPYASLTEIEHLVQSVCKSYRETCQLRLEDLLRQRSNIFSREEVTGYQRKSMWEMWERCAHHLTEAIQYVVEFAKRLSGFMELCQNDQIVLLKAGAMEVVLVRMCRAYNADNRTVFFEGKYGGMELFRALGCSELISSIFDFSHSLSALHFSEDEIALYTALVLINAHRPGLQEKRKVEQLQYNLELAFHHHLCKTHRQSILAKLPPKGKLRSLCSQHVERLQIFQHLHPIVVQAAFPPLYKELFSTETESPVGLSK
Protocol: (§1) In Vitro Assay of Inhibitory Effect Against RORγ Transcriptional Activity
(§2) Inhibitory effect of a test article on transcriptional activity of RORγ was measured by means of the following reporter gene assay.
(§3) cDNA encoding human and mouse RORγ ligand binding domain (LBD) were obtained based on the sequences of human RORγ (Genebank registered number NM_005060.3) and mouse RORγ (Genebank registered number NM_011281.2) (LBD sequence: human RORγ, from Ser253 to Lys518; mouse RORγ, from Ile251 to Lys516).
(§4) The LBD cDNA of human or mouse RORγ was inserted into pFA-CMV vector (Strategene), which expresses GAL4-DNA binding domain fusion protein. The resulting plasmids are hereinafter referred to as GAL4-hRORγ plasmid and GAL4-mRORγ plasmid, respectively.
(§5) GAL4-hRORγ plasmid or GAL4-mRORγ plasmid was transiently co-transfected into Chinese hamster ovary cells (CHO cells) with pG5-Luc (Promega), a reporter plasmid expressing firefly luciferase depending on GAL4.
(§6) TransIT (Registered trademark) CHO transfection reagent (Mirus) was used to co-transfect GAL4-hRORγ plasmid or GAL4-mRORγ plasmid into CHO cells with pG5-Luc plasmid. One day before the assay, CHO cells were suspended in HAM F-12 Nutrient medium containing 10 v/v % fetal bovine serum and seeded at 6×10^6 cells per 175 cm^2 cell culture flask. Fifty four micro litters of TransIT (Registered trademark) CHO reagent was added into a 15 ml tube containing 1.16 mL of HAM F-12 Nutrient medium without fetal bovine serum, and mixed and incubated at room temperature for 10 min. Thirty six micro litters of plasmid solution containing the GAL4-hRORγ plasmid (400 ng), pG5-Luc plasmid (9000 ng) and pcDNA3 plasmid (8600 ng) were added into the tube and mixed gently. In case of mouse assay, a plasmid solution containing the GAL4-mRORγ plasmid (250 ng), pG5-Luc plasmid (9000 ng) and pcDNA3 plasmid (8750 ng) was added, instead. The mixture was incubated at room temperature for 10 min. Nine micro litters of CHO Mojo Reagent were then added into each tube and mixed gently. The mixture was incubated at room temperature for 10 min. The resultant transfection reagent was applied to the cell culture. After incubation at 37° C., 5% CO2 for 4 hours, the plasmid-transfected CHO cells were harvested with a trypsin treatment. The collected cells were resuspended in HAM F-12 Nutrient medium supplemented with 10 v/v % fetal bovine serum and plated into a 384-well-white plate at 8,000 cells/50 μL/well. The plate was incubated at room temperature for 1 hour and then further incubated at 37° C., 5% CO2 for 3 hours. The test articles were dissolved in dimethylsulfoxide (DMSO) to obtain a concentration of 10 mM. The resulting solution was diluted with a medium just before use and added to the cells in the plate to prepare 8 different concentrations of the test article. The final concentration of DMSO was 0.2 v/v %. After the addition of the test articles, the cells were incubated at 37° C., 5% CO2 for 2 days.
(§7) RORγ transcriptional activity was detected as the intracellular luciferase activity using SteadyLite HTS Reporter Gene Assay System (Perkin Elmer). StedyLite Reagent was diluted five-fold into a solution containing Extension reagent (10 mM Tricine, 0.2% w/v BSA, 0.02% v/v Tween-20) to obtain the luciferase substrate solution. After the measurement of the cell viability using Resazurin, the culture media in the plate were removed, and then the luciferase substrate solution was added into each well. After the incubation at room temperature for 10 minutes, luminescence of each well was measured by a microplate reader. The luciferase activity derived from the luminescence count in the vehicle-control well treated with 0.2% DMSO alone was defined as 100%, and the luciferase activity in the test article was calculated as a percentage (%-of-control) based on the value of the vehicle-control. EC50 value of test article was calculated by curve fitting with GraphPad Prism. […]

mouse RORγ = target: T2, mouse RORγ (Mus musculus, UniProt P51450); experiment: In vitro assay of inhibitory effect against RORγ transcriptional activity (GAL4-mRORγ LBD luciferase reporter gene assay in CHO cells); assay type: cell-based; settings: for EC50: GAL4-mRORγ LBD / pG5-Luc in CHO cells, 2 days incubation; for mRORγ luciferase activity, %-of-control: value in parentheses beside the > EC50 bound, vehicle-control 0.2% DMSO alone = 100%
T2 construct: mouse RORγ, from Ile251 to Lys516; expressed in transfected cells; host or cells: CHO cells (Chinese hamster ovary), transient co-transfection with pG5-Luc
T2 sequence (P51450 251-516): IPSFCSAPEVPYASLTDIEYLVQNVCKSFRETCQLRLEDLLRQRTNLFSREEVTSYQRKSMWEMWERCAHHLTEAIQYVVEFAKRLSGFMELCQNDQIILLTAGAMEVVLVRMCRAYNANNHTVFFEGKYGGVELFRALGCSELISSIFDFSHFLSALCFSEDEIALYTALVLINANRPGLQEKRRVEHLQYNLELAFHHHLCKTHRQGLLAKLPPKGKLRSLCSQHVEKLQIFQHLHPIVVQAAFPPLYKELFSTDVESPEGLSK
Protocol: as §1, §2, §3, §4, §5, §6, §7

| EC50 (human RORγ) [µM] | EC50 (mouse RORγ) [µM] | hRORγ luciferase activity, %-of-control (human RORγ) | mRORγ luciferase activity, %-of-control (mouse RORγ) | Compound |
| --- | --- | --- | --- | --- |
| 0.034 | 0.024 |  |  | CC(C)(C)COc1ccc(C2NC(=O)N(CCCC(=O)O)C=C2C(C)(C)C)cc1Cl (single isomer, unassigned) [Example 5, 4-{5-tert-butyl-4-[3-chloro-4-(2,2-dimethylpropoxy)-phenyl]-2-oxo-3,4-dihydro-2H-pyrimidin-1-yl}-butanoic Acid] |
| > 8 | > 8 | (76%) | (75%) | CC(C)(C)COc1ccc(C2NC(=O)N(CCCC(=O)O)C=C2C(C)(C)C)cc1Cl (single isomer, unassigned) [Example 6] |
| 0.009 | 0.017 |  |  | CC(C)(C)CCc1ccc(C2NC(=O)N(CCCC(=O)O)C=C2C(C)(C)C)cc1Cl (single isomer, unassigned) [Example 10] |
| > 8 | > 8 | (87%) | (79%) | CC(C)(C)CCc1ccc(C2NC(=O)N(CCCC(=O)O)C=C2C(C)(C)C)cc1Cl (single isomer, unassigned) [Example 11] |
| 0.023 | 0.017 |  |  | CC(C)C1=CN(CCCC(=O)O)C(=O)NC1(C)c1ccc(OCC(C)(C)C)c(Cl)c1 (single isomer, unassigned) [Example 12] |
| 6.57 | 5.93 |  |  | CC(C)C1=CN(CCCC(=O)O)C(=O)NC1(C)c1ccc(OCC(C)(C)C)c(Cl)c1 (single isomer, unassigned) [Example 13] |
| 2.29 | 1.21 |  |  | CC(C)C1=CN(CCC(C)C(=O)O)C(=O)NC1(C)c1ccc(OCC(C)(C)C)c(Cl)c1 (single isomer, unassigned) [Example 19] |
| 2.93 | 2.52 |  |  | CC(C)C1=CN(CCC(C)C(=O)O)C(=O)NC1(C)c1ccc(OCC(C)(C)C)c(Cl)c1 (single isomer, unassigned) [Example 20] |
| 2.94 | 2.93 |  |  | CC(C)C1=CN(CCC(C)C(=O)O)C(=O)NC1(C)c1ccc(CCC(C)(C)C)c(Cl)c1 (single isomer, unassigned) [Example 24] |
| < 0.032 | < 0.032 |  |  | CC(C)C1=CN(CCC(C)C(=O)O)C(=O)NC1(C)c1ccc(CCC(C)(C)C)c(Cl)c1 (single isomer, unassigned) [Example 25] |
| 0.435 | 0.617 |  |  | CCC(C)C1=CN(CCCC(=O)O)C(=O)NC1(C)c1ccc(CCC(C)(C)C)c(Cl)c1 (single isomer, unassigned) [Example 33] |
| 0.013 | 0.021 |  |  | CCC(C)C1=CN(CCCC(=O)O)C(=O)NC1(C)c1ccc(CCC(C)(C)C)c(Cl)c1 (single isomer, unassigned) [Example 34] |
| 0.02 | 0.026 |  |  | CC(C)C1=CN(CCOCC(=O)O)C(=O)NC1(C)c1ccc(CCC(C)(C)C)c(Cl)c1 (single isomer, unassigned) [Example 39] |
| 0.152 | 0.198 |  |  | CC(C)C1=CN(CCOCC(=O)O)C(=O)NC1(C)c1ccc(CCC(C)(C)C)c(Cl)c1 (single isomer, unassigned) [Example 40] |
| > 8 | > 8 | (51%) | (70%) | CC(C)C1=CN(C2CCC(C(=O)O)C2)C(=O)N[C@]1(C)c1ccc(CCC(C)(C)C)c(Cl)c1 (single isomer, unassigned) [Example 63] |
| 0.019 | 0.016 |  |  | CC(C)C1=CN(C2CCC(C(=O)O)C2)C(=O)N[C@@]1(C)c1ccc(CCC(C)(C)C)c(Cl)c1 (single isomer, unassigned) [Example 64] |
| 0.032 | 0.021 |  |  | CC(C)(C)CCc1ccc(C2NC(=O)N([C@H]3C[C@H](C(=O)O)C3)C=C2C(C)(C)C)cc1Cl (single isomer, unassigned) [Example 101] |
| > 8 | > 8 | (76%) | (76%) | CC(C)(C)CCc1ccc(C2NC(=O)N([C@H]3C[C@H](C(=O)O)C3)C=C2C(C)(C)C)cc1Cl (single isomer, unassigned) [Example 102] |
| 3.93 | 1.98 |  |  | CC(C)C1=CN([C@H]2C[C@H](CC(=O)O)C2)C(=O)N[C@]1(C)c1ccc(CCC(C)(C)C)c(Cl)c1 (single isomer, unassigned) [Example 107] |
| 0.01 | 0.019 |  |  | CC(C)(C)CCc1ccc(C2(C)NC(=O)NC=C2C(C)(C)CCC(=O)O)cc1Cl (single isomer, unassigned) [Example 130, 4-{4-[3-chloro-4-(3,3-dimethyl-butyl)-phenyl]-4-methyl-2-oxo-1,2,3,4-tetrahydro-pyrimidin-5-yl}-4-methyl-pentanoic Acid] |
| 0.018 | 0.023 |  |  | CC(C)C1=CN(CCC(=O)O)C(=O)NC1(C)c1ccc(C2=CC(C)(C)CCC2)c(Cl)c1 (single isomer, unassigned) [Example 151] |
| 0.015 | 0.04 |  |  | COCCN1C=C(C(C)(C)CCC(=O)O)C(C)(c2ccc(CCC(C)(C)C)c(Cl)c2)NC1=O (single isomer, unassigned) [Example 160] |
| 0.014 | 0.029 |  |  | CC(C)C1=CN(CCC(=O)O)C(=O)NC1(C)c1ccc(C2CCCC(C)(C)C2)c(Cl)c1 (single isomer, unassigned) [Example 166] |
| 0.065 | 0.049 |  |  | CC(C)C1=CN(CCC(=O)O)C(=O)NC1(C)c1ccc(C2CCCC(C)(C)C2)c(Cl)c1 (single isomer, unassigned) [Example 167] |
| 0.012 | 0.018 |  |  | COCCN1C=C([C@H]2C[C@@H](C(=O)O)C2)C(C)(c2ccc(CCC(C)(C)C)c(Cl)c2)NC1=O (single isomer, unassigned) [Example 168] |
| 0.008 | 0.015 |  |  | CC(C)C1=CN(CCC(=O)O)C(=O)N[C@@]1(C)c1ccc(C2CC2C(C)(C)C)c(Cl)c1 (single isomer, unassigned) [Example 169] |
| 0.058 | 0.04 |  |  | CC(C)C1=CN(CCC(=O)O)C(=O)N[C@@]1(C)c1ccc(C2CC2C(C)(C)C)c(Cl)c1 (single isomer, unassigned) [Example 170] |
| 0.012 | 0.014 |  |  | CC(C)(C)CCc1ccc(C2(C)NC(=O)N(CCC(=O)O)C=C2C2(C)CC2)cc1Cl (single isomer, unassigned) [Example 171] |
